Here are results for 22 molecules from patent publication US9611277B2 (Janssen Pharmaceutica NV, priority 2013, dated 2017).

The target in one test is rat orexin 1 receptor (Rattus norvegicus, UniProt P56718). Kind of test: Rat orexin 1 receptor radioligand binding. As to conditions: rat orexin 1 receptor; averages of 2-20 runs; read-out: rOX1 Ki. The method, boiled down:
(§1)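 Competition binding with the tritiated thiazolyl-pyrrolidinyl-methanone radioligand in PBS on homogenized rat or human OX1R-expressing cell suspensions, ≤0.1% DMSO; nonspecific binding defined with 10 μM almorexant. Bound radioactivity read by scintillation after filtration; IC50 from one-site competition fit, converted to Ki using pre-determined radioligand Kd.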

Another test concerns the target human orexin 1 receptor (Homo sapiens, UniProt O43613). Description: Human orexin 1 receptor radioligand binding. As to conditions: human orexin 1 receptor; averages of 2-20 runs; read-out: hOX1 Ki. In outline: as §1
For a further test, the target named is human orexin 2 receptor (Homo sapiens (Human), UniProt O43614). Kind of test: Human orexin 2 receptor radioligand binding. To be noted: human orexin 2 receptor; averages of 2-20 runs; read-out: hOX2 Ki. The method, boiled down: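 HEK293 cells stably expressing human OX2 receptor, homogenized, incubated with [3H]-EMPA and compounds (DMSO ≤0.1%); nonspecific binding with 10 μM almorexant. Filter-bound radioactivity counted by scintillation; IC50 from one-site competition fit of triplicates, Ki from IC50 and predetermined radioligand Kd, averaged over 2-20 runs.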
Sequence of human orexin 2 receptor (O43614 whole entry): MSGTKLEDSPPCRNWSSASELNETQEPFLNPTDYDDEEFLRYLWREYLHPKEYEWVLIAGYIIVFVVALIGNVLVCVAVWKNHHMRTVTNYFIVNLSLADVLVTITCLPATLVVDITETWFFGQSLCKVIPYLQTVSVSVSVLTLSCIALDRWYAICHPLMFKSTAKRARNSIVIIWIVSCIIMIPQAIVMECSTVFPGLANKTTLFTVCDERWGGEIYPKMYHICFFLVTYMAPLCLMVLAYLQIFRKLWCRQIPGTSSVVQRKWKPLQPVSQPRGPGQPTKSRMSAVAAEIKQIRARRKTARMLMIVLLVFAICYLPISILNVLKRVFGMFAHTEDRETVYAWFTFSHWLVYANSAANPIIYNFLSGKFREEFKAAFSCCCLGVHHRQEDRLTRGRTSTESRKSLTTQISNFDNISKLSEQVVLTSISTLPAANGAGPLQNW

For the molecule `O=C(c1cccc(F)c1-c1ncccn1)N1C[C@H]2C[C@@H](Nc3ncc(C(F)(F)F)cc3F)[C@@H]1C2` [Example 179, (3-fluoro-2-(pyrimidin-2-yl)phenyl)((1S,4S,6R)-6-((3-fluoro-5-(trifluoromethyl)pyridin-2-yl)amino)-2-azabicyclo[2.2.1]heptan-2-yl)methanone], the values for the Ki on rat orexin 1 receptor, at human orexin 1 receptor and at human orexin 2 receptor were 5 nM, 5 nM and 217 nM, respectively.
For the molecule `Cc1ccc(-c2ncccn2)c(C(=O)N2C[C@@H]3CC[C@H]2[C@H](Oc2ccc(C(F)(F)F)cn2)C3)n1` [Example 265, (6-methyl-3-(pyrimidin-2-yl)pyridin-2-yl)((1S,4R,6R)-6-((5-(trifluoromethyl)pyridin-2-yl)oxy)-2-azabicyclo[2.2.2]octan-2-yl)methanone], the Ki at rat orexin 1 receptor was determined as 14 nM; on human orexin 1 receptor, 19 nM; on human orexin 2 receptor, 306 nM.
With `Cc1cnc(N[C@@H]2C[C@H]3C[C@@H]2N(C(=O)c2cc(F)ccc2-n2nccn2)C3)cn1` [Example 218, (5-fluoro-2-(2H-1,2,3-triazol-2-yl)phenyl)((1S,4S,6R)-6-((5-methylpyrazin-2-yl)amino)-2-azabicyclo[2.2.1]heptan-2-yl)methanone], the figures for the Ki at rat orexin 1 receptor, on human orexin 1 receptor and at human orexin 2 receptor were 31 nM, 49 nM and 490 nM, respectively.
On to `O=C(c1c(F)cccc1-n1nccn1)N1CC2CC(Nc3ccc(C(F)(F)F)cn3)C1C2` [Example 146, (2-fluoro-6-(2H-1,2,3-triazol-2-yl)phenyl)((1S,4S,6R)-6-((5-(trifluoromethyl)pyridin-2-yl)amino)-2-azabicyclo[2.2.1]heptan-2-yl)methanone], for which the Ki at rat orexin 1 receptor was 6 nM; on human orexin 1 receptor it was 3 nM; at human orexin 2 receptor, 150 nM.
As for `O=C(c1occc1-c1ccccc1)N1C[C@H]2C[C@@H](Nc3cnc(C(F)(F)F)cn3)[C@@H]1C2` [Example 207, (3-phenylfuran-2-yl)((1S,4S,6R)-6-((5-(trifluoromethyl)pyrazin-2-yl)amino)-2-azabicyclo[2.2.1]heptan-2-yl)methanone], the Ki on rat orexin 1 receptor turned out to be 143 nM; on human orexin 1 receptor it was 127 nM; at human orexin 2 receptor it was 611 nM.
In the case of `Cc1cnc(C(=O)N2C[C@H]3C[C@@H](Oc4ccc(C(F)F)cn4)[C@@H]2C3)c(-c2ncccn2)c1` [Example 288, ((1S,4R,6R)-6-((5-(difluoromethyl)pyridin-2-yl)oxy)-2-azabicyclo[2.2.1]heptan-2-yl)(5-methyl-3-(pyrimidin-2-yl)pyridin-2-yl)methanone], the Ki on rat orexin 1 receptor worked out at 29 nM; at human orexin 1 receptor it was 39 nM; at human orexin 2 receptor, 5100 nM.
Turning to `O=C(c1ccccc1-c1ncc(F)cn1)N1C[C@H]2C[C@@H](Nc3ncc(C(F)(F)F)cc3F)[C@@H]1C2` [Example 180, ((1S,4S,6R)-6-((3-fluoro-5-(trifluoromethyl)pyridin-2-yl)amino)-2-azabicyclo[2.2.1]heptan-2-yl)(2-(5-fluoropyrimidin-2-yl)phenyl)methanone], the Ki at rat orexin 1 receptor is 6 nM; at human orexin 1 receptor, 5 nM; on human orexin 2 receptor it was 380 nM.
For the molecule `Cc1cnc(O[C@@H]2C[C@H]3C[C@@H]2N(C(=O)c2cccc(F)c2-c2ncccn2)C3)nc1` [Example 133, (3-fluoro-2-(pyrimidin-2-yl)phenyl)((1S,4R,6R)-6-((5-methylpyrimidin-2-yl)oxy)-2-azabicyclo[2.2.1]heptan-2-yl)methanone], the Ki was 60 nM at rat orexin 1 receptor, 102 nM on human orexin 1 receptor and 4200 nM at human orexin 2 receptor.
Take `CN(c1cnc(C(F)(F)F)cn1)[C@@H]1C[C@H]2C[C@@H]1N(C(=O)c1cccc(F)c1-c1ncccn1)C2` [Example 208, (3-fluoro-2-(pyrimidin-2-yl)phenyl)((1S,4S,6R)-6-(methyl(5-(trifluoromethyl)pyrazin-2-yl)amino)-2-azabicyclo[2.2.1]heptan-2-yl)methanone]: the Ki on rat orexin 1 receptor is 7 nM; at human orexin 1 receptor, 6 nM; on human orexin 2 receptor, 846 nM.
Consider `O=C(c1cccc(F)c1-c1ncccn1)N1C[C@H]2C[C@@H](Nc3ccc(Cl)cn3)[C@@H]1C2` [Example 170, ((1S,4S,6R)-6-((5-chloropyridin-2-yl)amino)-2-azabicyclo[2.2.1]heptan-2-yl)(3-fluoro-2-(pyrimidin-2-yl)phenyl)methanone], for which the results for the Ki at rat orexin 1 receptor, on human orexin 1 receptor and at human orexin 2 receptor were 4 nM, 12 nM and 321 nM, respectively.
On to `O=C(c1ccccc1-c1ncc(F)cn1)N1C[C@H]2C[C@@H](Nc3cnc(C(F)(F)F)cn3)[C@@H]1C2` [Example 203, (2-(5-fluoropyrimidin-2-yl)phenyl)((1S,4S,6R)-6-((5-(trifluoromethyl)pyrazin-2-yl)amino)-2-azabicyclo[2.2.1]heptan-2-yl)methanone], for which the Ki is 9 nM on rat orexin 1 receptor, 9 nM at human orexin 1 receptor and 545 nM at human orexin 2 receptor.
As to `O=C(c1ccccc1-c1ncc(F)cn1)N1C[C@H]2C[C@@H](Oc3ccc(C(F)(F)F)cn3)[C@@H]1C2` [Example 89, (2-(5-fluoropyrimidin-2-yl)phenyl)((1S,4R,6R)-6-((5-(trifluoromethyl)pyridin-2-yl)oxy)-2-azabicyclo[2.2.1]heptan-2-yl)methanone], the figures for the Ki on rat orexin 1 receptor, on human orexin 1 receptor and at human orexin 2 receptor were 18 nM, 8 nM and 1100 nM, respectively.
Take `O=C(c1cccnc1-n1nccn1)N1C[C@H]2C[C@@H](Oc3ccc(C(F)(F)F)cn3)[C@@H]1C2` [Example 87, (2-(2H-1,2,3-triazol-2-yl)pyridin-3-yl)((1S,4R,6R)-6-((5-(trifluoromethyl)pyridin-2-yl)oxy)-2-azabicyclo[2.2.1]heptan-2-yl)methanone]: the Ki at rat orexin 1 receptor is 156 nM; on human orexin 1 receptor, 211 nM; at human orexin 2 receptor, greater than 10000 nM.
The like results for `O=C(c1c(F)cccc1-c1ncccn1)N1C[C@H]2C[C@@H](Oc3cnc(C(F)(F)F)cn3)[C@@H]1C2` [Example 129, (2-fluoro-6-(pyrimidin-2-yl)phenyl)((1S,4R,6R)-6-((5-(trifluoromethyl)pyrazin-2-yl)oxy)-2-azabicyclo[2.2.1]heptan-2-yl)methanone] were, in that order, 53 nM, 47 nM and 4400 nM.
The like results for `Cc1ccc(C(=O)N2C[C@H]3C[C@@H](Oc4ccc(Br)cn4)[C@@H]2C3)c(-n2nccn2)n1` [Example 105, ((1S,4R,6R)-6-((5-bromopyridin-2-yl)oxy)-2-azabicyclo[2.2.1]heptan-2-yl)(6-methyl-2-(2H-1,2,3-triazol-2-yl)pyridin-3-yl)methanone] were, in that order, 119 nM, 337 nM and greater than 10000 nM.
For `O=C(c1cccc(F)c1-c1ncccn1)N1C[C@H]2C[C@@H](Nc3ccc(Br)cn3)[C@@H]1C2` [Example 167, ((1S,4S,6R)-6-((5-bromopyridin-2-yl)amino)-2-azabicyclo[2.2.1]heptan-2-yl)(3-fluoro-2-(pyrimidin-2-yl)phenyl)methanone] the same measures were 2 nM, 6 nM and 239 nM.
Take `O=C(c1ccc(F)cc1-c1ncccn1)N1C[C@H]2C[C@@H](Nc3ncc(C(F)(F)F)cn3)[C@@H]1C2` [Example 227, (4-fluoro-2-(pyrimidin-2-yl)phenyl)((1S,4S,6R)-6-((5-(trifluoromethyl)pyrimidin-2-yl)amino)-2-azabicyclo[2.2.1]heptan-2-yl)methanone]: the Ki at rat orexin 1 receptor is 12 nM; on human orexin 1 receptor it was 13 nM; at human orexin 2 receptor it was 3100 nM.
As to `Cc1ccc(-n2nccn2)c(C(=O)N2C[C@H]3C[C@@H](Nc4ncc(C(F)(F)F)cn4)[C@@H]2C3)n1` [Example 62, (6-methyl-3-(2H-1,2,3-triazol-2-yl)pyridin-2-yl)((1S,4S,6R)-6-((5-(trifluoromethyl)pyrimidin-2-yl)amino)-2-azabicyclo[2.2.1]heptan-2-yl)methanone], the Ki at rat orexin 1 receptor is 28 nM; at human orexin 1 receptor, 19 nM; at human orexin 2 receptor, 569 nM.
As for `O=C(c1ccccc1-n1nccn1)N1C[C@H]2C[C@@H](Oc3ccc(Cl)cn3)[C@@H]1C2` [Example 112, (2-(2H-1,2,3-triazol-2-yl)phenyl)((1S,4R,6R)-6-((5-chloropyridin-2-yl)oxy)-2-azabicyclo[2.2.1]heptan-2-yl)methanone], the figures for the Ki at rat orexin 1 receptor, at human orexin 1 receptor and on human orexin 2 receptor were 8 nM, 10 nM and 459 nM, respectively.
As for `CN(c1ccc(C(F)(F)F)cn1)[C@@H]1C[C@H]2C[C@@H]1N(C(=O)c1c(F)cccc1-c1ncccn1)C2` [Example 159, (2-fluoro-6-(pyrimidin-2-yl)phenyl)((1S,4S,6R)-6-(methyl(5-(trifluoromethyl)pyridin-2-yl)amino)-2-azabicyclo[2.2.1]heptan-2-yl)methanone], the Ki turned out to be 6 nM at rat orexin 1 receptor, 4 nM on human orexin 1 receptor and 209 nM at human orexin 2 receptor.
As for `Cc1cnc(O[C@@H]2C[C@H]3C[C@@H]2N(C(=O)c2ccccc2-n2nccn2)C3)nc1` [Example 131, (2-(2H-1,2,3-triazol-2-yl)phenyl)((1S,4R,6R)-6-((5-methylpyrimidin-2-yl)oxy)-2-azabicyclo[2.2.1]heptan-2-yl)methanone], the Ki on rat orexin 1 receptor is 140 nM; at human orexin 1 receptor, 132 nM; on human orexin 2 receptor, 2200 nM.
The like results for `O=C(c1ccc(F)cc1-c1ncccn1)N1C[C@H]2C[C@@H](Oc3cnc(C(F)(F)F)cn3)[C@@H]1C2` [Example 127, (4-fluoro-2-(pyrimidin-2-yl)phenyl)((1S,4R,6R)-6-((5-(trifluoromethyl)pyrazin-2-yl)oxy)-2-azabicyclo[2.2.1]heptan-2-yl)methanone] were, in that order, 116 nM, 143 nM and greater than 10000 nM.
